Assay results as given in patent US9834542B2, “LXR modulators” (BRISTOL-MYERS SQUIBB COMPANY, priority 2013, dated 2017).

Molecular target: T1, LXRβ (Homo sapiens, UniProt P55055)
T1 construct: Co-transfection expression plasmids, comprising full-length LXRα (pCMX-h LXRα[…] or LXRβ (pCMX-hLXRβ)); expressed in transfected cells; host or cells: CV-1 African Green Monkey Kidney Cells
T1 sequence (P55055 1-460): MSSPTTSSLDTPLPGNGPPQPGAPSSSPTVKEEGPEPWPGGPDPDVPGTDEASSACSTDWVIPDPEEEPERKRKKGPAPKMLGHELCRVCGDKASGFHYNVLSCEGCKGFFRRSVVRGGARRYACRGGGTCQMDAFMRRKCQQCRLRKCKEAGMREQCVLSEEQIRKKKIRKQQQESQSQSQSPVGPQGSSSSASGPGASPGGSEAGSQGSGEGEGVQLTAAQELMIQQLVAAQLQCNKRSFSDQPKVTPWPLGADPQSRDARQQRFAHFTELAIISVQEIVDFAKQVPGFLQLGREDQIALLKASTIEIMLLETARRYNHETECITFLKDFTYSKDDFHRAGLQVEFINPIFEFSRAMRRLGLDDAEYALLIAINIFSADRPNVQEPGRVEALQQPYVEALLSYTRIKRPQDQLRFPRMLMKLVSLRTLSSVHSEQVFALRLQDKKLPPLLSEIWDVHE
T1 sequence (P19793 1-462 partner): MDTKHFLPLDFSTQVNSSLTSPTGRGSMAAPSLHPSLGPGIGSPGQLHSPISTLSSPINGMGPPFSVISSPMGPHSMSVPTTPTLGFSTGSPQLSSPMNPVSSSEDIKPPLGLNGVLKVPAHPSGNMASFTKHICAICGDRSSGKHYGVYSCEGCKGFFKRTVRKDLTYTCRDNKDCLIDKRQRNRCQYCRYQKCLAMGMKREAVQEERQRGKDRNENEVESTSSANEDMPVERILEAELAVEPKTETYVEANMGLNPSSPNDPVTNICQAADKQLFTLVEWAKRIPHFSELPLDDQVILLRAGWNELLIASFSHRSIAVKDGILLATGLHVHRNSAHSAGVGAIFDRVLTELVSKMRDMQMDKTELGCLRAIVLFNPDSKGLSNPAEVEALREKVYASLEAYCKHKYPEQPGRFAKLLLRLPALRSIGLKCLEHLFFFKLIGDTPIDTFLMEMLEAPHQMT
Assay: Co-transfection assay (LXRE luciferase reporter), LXRβ
Type: cell-based
Settings: for EC50: CV-1 cells transfected with pCMX-hLXRβ and LXREx1-Tk-Luciferase, 20 hours incubation; for Emax: LXRβ co-transfection, relative to high control 1-(2,4-difluorobenzyl)-2-oxo-6-(4-phenoxyphenyl)-4-(trifluoromethyl)-1,2-dihydropyridine-3-carbonitrile, read-out: % Efficacy
Source text: To measure the ability of compounds to activate or inhibit the transcriptional activity of LXR in a cell based assay, the co-transfection assay was used. It has been shown that LXR functions as a heterodimer with RXR. For the co-transfection assay, expression plasmids for LXRα and LXRβ are introduced separately via transient transfection into mammalian cells along with a luciferase reporter plasmid that contains one copy of a DNA sequence that is bound by LXR-RXR heterodimers (LXRE; Willy, P. et. al. 1995). LXRs heterodimerize with the endogenous RXR. Treatment of transfected cells with an LXR agonist increases the transcriptional activity of LXR, which is measured by an increase in luciferase activity.
CV-1 African Green Monkey Kidney Cells
Co-transfection expression plasmids, comprising full-length LXRα (pCMX-h LXRα[…] or LXRβ (pCMX-hLXRβ), reporter plasmid (LXREx1-Tk-Luciferase), and control (pCMX-Galactosidase expression vector) (Willey et al. Genes & Development 9 1033-1045 (1995)).
CV-1 cells were prepared 24 hours prior to the experiment by plating them into T-175 flasks or 500 cm^2 dishes in order to achieve 70-80% confluency on the day of the transfection. The number of cells to be transfected was determined by the number of plates to be screened. Each well of a 384 well plate requires 1.5×10^4 cells. DNA Transfection Reagent was prepared by mixing the required plasmid DNAs with a cationic lipid transfection reagent Transit 2020 (Mirus Bio) for CV1 by following the instructions provided with the reagents. Optimal DNA amounts were determined empirically per cell line and size of vessel to be transfected. For each T175 cm^2 flask a total of 59 ug for CV1 of DNA, 133 uL Transit2020 and 4.5 mL DMEM for CV1 was mixed and added. Cells were then incubated at least 5 hours at 37° C. to prepare screening cells.
Luciferase assay reagent (*Steady-Glo Luciferase Assay System by Promega, CAT#E2550) was prepared by combining before use:
Assay plates were prepared by dispensing 5 μL of compound per well of a 384 well plate to achieve final compound concentration of 10 μM and no more than 0.5% DMSO. Media was removed from the screening cells, the cells trypsinized, harvested cells by centrifugation, counted, and plated at a density of approximately 1.5×10^4 cells in the 384 well assay plate prepared above in a volume of about 95 uL. Assay plates containing both compounds and screening cells (100 μL in total volume) were incubated for 20 hours at 37° C.
After incubation with compounds, media was removed from the cells and luciferase assay reagent (50 μL/well) added. After ˜2 minutes at ambient temperature, the assay plates were read on a luminometer (PE Biosystems Northstar reader with on-board injectors, or Envision(Perkin Elmer) or equivalent).
The LXR/LXRE co-transfection assay can be used to establish the EC50/IC50 values for potency and percent activity or inhibition for efficacy. Efficacy defines the activity of a compound relative to a high control 1-(2,4-difluorobenzyl)-2-oxo-6-(4-phenoxyphenyl)-4-(trifluoromethyl)-1,2-dihydropyridine-3-carbonitrileor a low control (DMSO/vehicle). The dose response curves are generated from a 11 point curve with concentrations differing by ½ LOG units. Each point represents the average of 2 wells of data from duplicate 384 well plate.
The data from this assay is fitted to the following equation, from which the EC50 value may be solved: Y=Bottom+(Top−Bottom)/(1+10^((logEC50-X)*HillSlope)).
The EC50/IC50 is therefore defined as the concentration at which an agonist or antagonist elicits a response that is halfway between the Top (maximum) and Bottom (baseline) values. The EC50/IC50 values represented are the averages of at least 2 and normally 3 independent experiments. […]

| SMILES | EC50 [nM] | Emax [%] |
| --- | --- | --- |
| Cc1nc(C(F)(F)F)cn1-c1ccc(-c2cccc(S(C)(=O)=O)c2)cc1-c1ccnn1-c1ccc(Cl)cc1 [Example 286, 1-(4-chlorophenyl)-5-{3′-(methylsulfonyl)-4-[2-methyl-4-(trifluoromethyl)-1H-imidazol-1-yl]biphenyl-3-yl}-1H-pyrazole] | 152 | 84 |
| Cc1nc(C(F)(F)F)cn1-c1ccc(-c2ccc(CO)c(S(C)(=O)=O)c2)cc1-c1oc(CCO)nc1-c1ccc(OC(F)(F)F)cc1 [Example 613, 2-(5-(4′-(hydroxymethyl)-4-(2-methyl-4-(trifluoromethyl)-1H-imidazol-1-yl)-3′-(methylsulfonyl)-[1,1′-biphenyl]-3-yl)-4-(4-(trifluoromethoxy)phenyl)oxazol-2-yl)ethanol] | 1160 | 62 |
| Cc1nc(-c2cc(-c3cccc(S(C)(=O)=O)c3)ccc2-n2cc(C(F)(F)F)nc2C)c(-c2cccn(C(C)C)c2=O)o1 [Example 379, 1-isopropyl-3-(2-methyl-4-(4-(2-methyl-4-(trifluoromethyl)-1H-imidazol-1-yl)-3′-(methylsulfonyl)biphenyl-3-yl)oxazol-5-yl)pyridin-2(1H)-one] | 825 | 21 |
| Cc1nc(-c2cc(-c3cc(F)c(CO)c(S(C)(=O)=O)c3)ccc2-n2cc(C(F)(F)F)nc2C)c(-c2ccc(SC(F)(F)F)cc2)o1 [Example 543] | 67 | 48 |
| CS(=O)(=O)c1cc(-c2ccc(-n3cc(C(F)(F)F)nc3Cl)c(-n3nncc3-c3ccc(Cl)cc3Cl)c2)cc(F)c1CO [Example 145, {4′-[2-chloro-4-(trifluoromethyl)-1H-imidazol-1-yl]-3′-[5-(2,4-dichlorophenyl)-1H-1,2,3-triazol-1-yl]-3-fluoro-5-(methylsulfonyl)biphenyl-4-yl}methanol] | 233 | 110 |
| CCCc1nc(-c2cc(-c3ccc(CO)c(S(C)(=O)=O)c3)ccc2-n2cc(C(F)(F)F)nc2C)c(-c2ccc(OC(F)(F)F)cc2)o1 [Example 558, (4′-(2-methyl-4-(trifluoromethyl)-1H-imidazol-1-yl)-3-(methylsulfonyl)-3′-(2-propyl-5-(4-(trifluoromethoxy)phenyl)oxazol-4-yl)-[1,1′-biphenyl]-4-yl)methanol] | 10 | 82 |
| COc1ccc(-c2cnnn2-c2cc(-c3cccc(S(C)(=O)=O)c3)ccc2-n2cc(C(F)(F)F)nc2C)cc1 [Example 26, 5-[4-(methyloxy)phenyl]-1-{3′-(methylsulfonyl)-4-[2-methyl-4-(trifluoromethyl)-1H-imidazol-1-yl]biphenyl-3-yl}-1H-1,2,3-triazole] | 541 | 93 |
| Cc1nc(C(F)(F)F)cn1-c1ccc(-c2cc(F)c(CO)c(S(C)(=O)=O)c2)cc1-n1nncc1C(=O)c1ccc(Cl)cc1 [Example 140, (4-chlorophenyl)(1-{3′-fluoro-4′-(hydroxymethyl)-5′-(methylsulfonyl)-4-[2-methyl-4-(trifluoromethyl)-1H-imidazol-1-yl]biphenyl-3-yl}-1H-1,2,3-triazol-5-yl)methanone] | 383 | 64 |
| Cc1ccc(-c2oc(C)nc2-c2cc(-c3cc(F)c(CO)c(S(C)(=O)=O)c3)ccc2-n2cc(C(F)(F)F)nc2C)cc1 [Example 492, (3-fluoro-4′-(2-methyl-4-(trifluoromethyl)-1H-imidazol-1-yl)-3′-(2-methyl-5-p-tolyloxazol-4-yl)-5-(methylsulfonyl)biphenyl-4-yl)methanol] | 34 | 64 |
| Cc1nc(C(F)F)c(C)n1-c1ccc(-c2cccc(S(C)(=O)=O)c2)cc1-n1nncc1-c1ccc(OC(F)(F)F)cc1 [Example 232, 1-(4-(4-(difluoromethyl)-2,5-dimethyl-1H-imidazol-1-yl)-3′-(methylsulfonyl)-[1,1′-biphenyl]-3-yl)-5-(4-(trifluoromethoxy)phenyl)-1H-1,2,3-triazole] | 1970 | 74 |
| Cc1nc(-c2cc(-c3cccc(S(C)(=O)=O)c3)ccc2-n2cc(C(F)(F)F)nc2C)c(-c2ccc3c(c2)CCC3)o1 [Example 474, 5-(2,3-dihydro-1H-inden-5-yl)-2-methyl-4-(4-(2-methyl-4-(trifluoromethyl)-1H-imidazol-1-yl)-3′-(methylsulfonyl)biphenyl-3-yl)oxazole] | 119 | 53 |
| CCS(=O)(=O)c1cccc(-c2ccc(-n3cc(C(F)F)nc3C)c(-n3nncc3C(C)c3ccc(Cl)cc3)c2)c1 (stereo not drawn) [Example 131, 5-[1-(4-chlorophenyl)ethyl]-1-{4-[4-(difluoromethyl)-2-methyl-1H-imidazol-1-yl]-3′-(ethylsulfonyl)biphenyl-3-yl}-1H-1,2,3-triazole] | 821 | 77 |
| Cc1nc(C(=O)NCC(F)(F)F)cn1-c1ccc(-c2cccc(S(C)(=O)=O)c2)cc1-n1nncc1-c1ccc(OC(F)(F)F)cc1 [Example 3, 2-methyl-1-[3′-(methylsulfonyl)-3-(5-{4-[(trifluoromethyl)oxy]phenyl}-1H-1,2,3-triazol-1-yl)biphenyl-4-yl]-N-(2,2,2-trifluoroethyl)-1H-imidazole-4-carboxamide] | 1950 | 74 |
| Cc1nc(C(F)(F)F)cn1-c1ccc(-c2cccc(S(C)(=O)=O)c2)cc1-c1ccnn1-c1ccc(Cl)nc1 [Example 296, 2-chloro-5-(5-(4-(2-methyl-4-(trifluoromethyl)-1H-imidazol-1-yl)-3′-(methylsulfonyl)biphenyl-3-yl)-1H-pyrazol-1-yl)pyridine] | 572 | 75 |
| Cc1nc(C(F)(F)F)cn1-c1ccc(-c2cc(F)c(CO)c(S(C)(=O)=O)c2)cc1-c1nc(C(C)CO)oc1-c1ccc(OC(F)(F)F)cc1 (stereo not drawn) [Example 554, 2-(4-(3′-fluoro-4′-(hydroxymethyl)-4-(2-methyl-4-(trifluoromethyl)-1H-imidazol-1-yl)-5′-(methylsulfonyl)-[1,1′-biphenyl]-3-yl)-5-(4-(trifluoromethoxy)phenyl)oxazol-2-yl)propan-1-ol] | 226 | 31 |
